Results: patent US11040976B2, “Substrate selective inhibitors of insulin-degrading enzyme (IDE) and uses thereof” (President and Fellows of Harvard College, priority 2015, dated 2021)

Biological target: T1, human IDE Ala479Leu (Homo sapiens, UniProt P14735, A479L)
T1 construct: N-His6-tagged human IDE42-1019 construct was introduced in the expression plasmid pTrcHis-A; His6 (N); made in house; host or cells: E. coli Rosetta 2 (DE3) pLysS
T1 sequence (P14735 42-1019 A479L): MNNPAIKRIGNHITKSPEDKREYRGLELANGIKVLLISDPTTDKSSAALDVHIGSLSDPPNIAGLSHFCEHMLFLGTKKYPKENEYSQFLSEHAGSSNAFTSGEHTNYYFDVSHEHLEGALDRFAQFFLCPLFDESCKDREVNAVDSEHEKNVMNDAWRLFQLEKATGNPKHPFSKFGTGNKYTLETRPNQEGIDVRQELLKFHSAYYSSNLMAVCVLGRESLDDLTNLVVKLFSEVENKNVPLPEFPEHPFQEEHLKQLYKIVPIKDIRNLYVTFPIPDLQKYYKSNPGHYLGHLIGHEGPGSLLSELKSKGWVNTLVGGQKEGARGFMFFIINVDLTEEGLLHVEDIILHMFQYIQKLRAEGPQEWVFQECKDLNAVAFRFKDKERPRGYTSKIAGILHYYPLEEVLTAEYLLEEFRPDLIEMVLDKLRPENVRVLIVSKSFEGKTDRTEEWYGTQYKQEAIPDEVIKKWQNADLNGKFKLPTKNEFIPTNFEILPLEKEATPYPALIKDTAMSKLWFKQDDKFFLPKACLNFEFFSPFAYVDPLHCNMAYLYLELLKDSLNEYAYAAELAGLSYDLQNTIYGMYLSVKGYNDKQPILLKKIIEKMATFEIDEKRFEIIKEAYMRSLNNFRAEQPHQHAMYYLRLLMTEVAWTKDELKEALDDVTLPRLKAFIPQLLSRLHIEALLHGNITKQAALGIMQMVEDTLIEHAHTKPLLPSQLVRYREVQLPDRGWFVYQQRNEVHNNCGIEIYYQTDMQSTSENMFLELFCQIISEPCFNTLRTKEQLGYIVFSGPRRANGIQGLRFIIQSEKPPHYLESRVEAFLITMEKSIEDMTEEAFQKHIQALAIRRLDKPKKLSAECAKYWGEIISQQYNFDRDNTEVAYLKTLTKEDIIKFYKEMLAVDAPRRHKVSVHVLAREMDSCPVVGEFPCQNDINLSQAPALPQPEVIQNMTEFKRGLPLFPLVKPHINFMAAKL
Experiment: Activity assay of mutant human IDE variant A479L with IDE inhibitors
Type: biochemical
Source text: N-His6-tagged human IDE42-1019 construct was introduced in the expression plasmid pTrcHis-A (Invitrogen) using primers for uracil-specific excision reactions (USER) by Taq (NEB) and Pfu polymerases (PfuTurbo CX®, Agilent), as described in more detail in Maianti et al. (Nature (2014), 511, 94-98), which is incorporated by reference herein. The IDE gene was amplified with the primers 5′-[…]-dU-[…] (SEQ ID NO: 26) and 5′-[…] G-dU-[…] (SEQ ID NO: 27) (underlined sequences represent overhangs, and italics highlight the PCR priming sequence). Similarly, the pTrcHis-A vector was amplified for USER cloning with the primers 5′-[…]-dU-[…] (SEQ ID NO: 28) and 5′-[…]-dU-[…] (SEQ ID NO: 29). Mutant IDE constructs were generated by amplifying the full vector construct with USER cloning primers introducing a mutant overhang (see Table E6).
Recombinant His6-tagged proteins were purified by Ni(II)-affinity chromatography (IMAC sepharose beads, GE Healthcare®) according to the manufacturer's instructions. The cell pellets were re-suspended in pH 8.0 buffer containing 50 mM phosphate, 300 mM NaCl, 10 mM imidazole, 1% Triton X-100 and 1 mM tris(2-carboxyethyl)phosphine hydrochloride (TCEP), and were lysed by probe sonication for 4 minutes at <4° C., followed by clearing of cell debris by centrifugation at 10,000 g for 25 minutes at 4° C. […]

SMILES: NCCCC[C@@H]1NC(=O)/C=C/C(=O)N[C@H](C(N)=O)CCCCNC(=O)[C@@H](Cc2ccc(C(=O)c3ccccc3)cc2)NC(=O)[C@H](CC2CCCCC2)NC1=O [6bK, reference compound]
- effect of Ala479Leu mutation on inhibition of IDE: blocks 6bK from inhibiting IDE
